Measurements reported in patent US11739098B2 (BRISTOL-MYERS SQUIBB COMPANY, priority 2017, dated 2023).

What was measured:
Type in all cases: cell-based
human TLR9 = target: T1, human TLR9 (Homo sapiens, UniProt Q9NR96); assay: TLR9 inhibition reporter assay (HEK-Blue cells, SEAP reporter, ODN2006 stimulation); conditions: HEK-Blue cells overexpressing human TLR9, SEAP reporter, ODN2006 5 nM
T1 construct: host or cells: HEK-Blue cells (HEK293-derived reporter line)
T1 sequence (Q9NR96 26-1032): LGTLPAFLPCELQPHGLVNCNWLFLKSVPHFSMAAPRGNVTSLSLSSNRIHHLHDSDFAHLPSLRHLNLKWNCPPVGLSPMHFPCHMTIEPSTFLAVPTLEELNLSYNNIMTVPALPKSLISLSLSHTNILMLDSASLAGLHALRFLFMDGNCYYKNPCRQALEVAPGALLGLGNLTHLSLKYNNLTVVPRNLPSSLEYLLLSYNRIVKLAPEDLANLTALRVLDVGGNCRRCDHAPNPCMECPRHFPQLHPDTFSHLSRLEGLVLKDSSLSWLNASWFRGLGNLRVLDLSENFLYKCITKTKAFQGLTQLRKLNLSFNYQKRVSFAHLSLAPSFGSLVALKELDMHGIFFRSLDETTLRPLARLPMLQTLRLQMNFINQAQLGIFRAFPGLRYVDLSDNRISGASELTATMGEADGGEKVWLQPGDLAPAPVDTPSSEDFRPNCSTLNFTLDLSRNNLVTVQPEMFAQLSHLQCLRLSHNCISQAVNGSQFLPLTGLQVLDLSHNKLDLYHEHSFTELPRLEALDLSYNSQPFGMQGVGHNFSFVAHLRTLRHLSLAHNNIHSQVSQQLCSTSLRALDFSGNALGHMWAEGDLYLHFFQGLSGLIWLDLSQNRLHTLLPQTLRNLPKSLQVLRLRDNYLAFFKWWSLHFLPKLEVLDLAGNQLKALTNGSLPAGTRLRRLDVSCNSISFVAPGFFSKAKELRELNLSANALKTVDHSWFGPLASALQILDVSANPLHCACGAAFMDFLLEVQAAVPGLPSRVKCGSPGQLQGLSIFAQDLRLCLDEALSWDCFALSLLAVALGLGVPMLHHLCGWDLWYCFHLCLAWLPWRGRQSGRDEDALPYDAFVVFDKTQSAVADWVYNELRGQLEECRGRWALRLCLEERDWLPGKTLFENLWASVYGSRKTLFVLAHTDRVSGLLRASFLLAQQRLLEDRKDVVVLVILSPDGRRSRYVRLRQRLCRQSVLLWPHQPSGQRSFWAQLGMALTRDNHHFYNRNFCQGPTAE
How it was run: (§1)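 Read-out is SEAP activity in HEK-Blue detection medium after 22 h at 37 °C, converted to percent inhibition against agonist-plus-DMSO and reference-inhibitor controls. Cells saw compound (0.05 nM–50 μM, 30 min, room temperature) before gardiquimod 7.5 μM, R848 15.9 μM or ODN2006 5 nM for TLR7, TLR8 and TLR9, respectively.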

human TLR7 = target: T2, human TLR7 (Homo sapiens, UniProt Q9NYK1); assay: TLR7 inhibition reporter assay (HEK-Blue cells, SEAP reporter, gardiquimod stimulation); conditions: HEK-Blue cells overexpressing human TLR7, SEAP reporter, gardiquimod 7.5 μM
T2 construct: host or cells: HEK-Blue cells (HEK293-derived reporter line)
T2 sequence (Q9NYK1 27-1049): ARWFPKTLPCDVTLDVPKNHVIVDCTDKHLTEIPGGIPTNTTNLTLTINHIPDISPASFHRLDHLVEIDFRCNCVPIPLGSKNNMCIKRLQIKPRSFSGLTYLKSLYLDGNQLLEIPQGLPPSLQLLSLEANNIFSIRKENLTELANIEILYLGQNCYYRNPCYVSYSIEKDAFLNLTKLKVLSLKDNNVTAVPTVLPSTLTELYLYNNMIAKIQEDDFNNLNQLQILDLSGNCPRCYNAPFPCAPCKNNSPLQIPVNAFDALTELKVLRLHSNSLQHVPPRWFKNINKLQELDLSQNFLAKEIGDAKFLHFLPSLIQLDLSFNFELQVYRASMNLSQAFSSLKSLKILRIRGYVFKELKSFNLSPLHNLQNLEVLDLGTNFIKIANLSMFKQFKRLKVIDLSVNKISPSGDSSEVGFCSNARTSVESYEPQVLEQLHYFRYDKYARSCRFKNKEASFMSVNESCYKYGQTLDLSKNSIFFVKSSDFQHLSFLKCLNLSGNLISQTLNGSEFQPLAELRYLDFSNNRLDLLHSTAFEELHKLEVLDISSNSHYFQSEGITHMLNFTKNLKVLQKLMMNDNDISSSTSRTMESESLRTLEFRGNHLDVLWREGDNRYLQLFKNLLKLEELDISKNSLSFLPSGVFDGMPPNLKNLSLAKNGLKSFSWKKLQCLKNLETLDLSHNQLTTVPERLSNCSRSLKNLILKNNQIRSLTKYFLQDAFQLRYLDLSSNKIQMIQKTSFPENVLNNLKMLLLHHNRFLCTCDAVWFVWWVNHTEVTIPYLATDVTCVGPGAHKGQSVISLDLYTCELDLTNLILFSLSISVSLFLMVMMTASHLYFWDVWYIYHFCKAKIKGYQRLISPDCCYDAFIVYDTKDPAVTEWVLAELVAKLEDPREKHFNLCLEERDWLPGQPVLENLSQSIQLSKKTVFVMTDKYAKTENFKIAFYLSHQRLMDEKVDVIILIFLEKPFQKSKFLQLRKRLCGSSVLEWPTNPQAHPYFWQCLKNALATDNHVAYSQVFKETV
How it was run: as §1

human TLR8 = target: T3, human TLR8 (Homo sapiens, UniProt Q9NR97); assay: TLR8 inhibition reporter assay (HEK-Blue cells, SEAP reporter, R848 stimulation); conditions: HEK-Blue cells overexpressing human TLR8, SEAP reporter, R848 15.9 μM
T3 construct: host or cells: HEK-Blue cells (HEK293-derived reporter line)
T3 sequence (Q9NR97 27-1041): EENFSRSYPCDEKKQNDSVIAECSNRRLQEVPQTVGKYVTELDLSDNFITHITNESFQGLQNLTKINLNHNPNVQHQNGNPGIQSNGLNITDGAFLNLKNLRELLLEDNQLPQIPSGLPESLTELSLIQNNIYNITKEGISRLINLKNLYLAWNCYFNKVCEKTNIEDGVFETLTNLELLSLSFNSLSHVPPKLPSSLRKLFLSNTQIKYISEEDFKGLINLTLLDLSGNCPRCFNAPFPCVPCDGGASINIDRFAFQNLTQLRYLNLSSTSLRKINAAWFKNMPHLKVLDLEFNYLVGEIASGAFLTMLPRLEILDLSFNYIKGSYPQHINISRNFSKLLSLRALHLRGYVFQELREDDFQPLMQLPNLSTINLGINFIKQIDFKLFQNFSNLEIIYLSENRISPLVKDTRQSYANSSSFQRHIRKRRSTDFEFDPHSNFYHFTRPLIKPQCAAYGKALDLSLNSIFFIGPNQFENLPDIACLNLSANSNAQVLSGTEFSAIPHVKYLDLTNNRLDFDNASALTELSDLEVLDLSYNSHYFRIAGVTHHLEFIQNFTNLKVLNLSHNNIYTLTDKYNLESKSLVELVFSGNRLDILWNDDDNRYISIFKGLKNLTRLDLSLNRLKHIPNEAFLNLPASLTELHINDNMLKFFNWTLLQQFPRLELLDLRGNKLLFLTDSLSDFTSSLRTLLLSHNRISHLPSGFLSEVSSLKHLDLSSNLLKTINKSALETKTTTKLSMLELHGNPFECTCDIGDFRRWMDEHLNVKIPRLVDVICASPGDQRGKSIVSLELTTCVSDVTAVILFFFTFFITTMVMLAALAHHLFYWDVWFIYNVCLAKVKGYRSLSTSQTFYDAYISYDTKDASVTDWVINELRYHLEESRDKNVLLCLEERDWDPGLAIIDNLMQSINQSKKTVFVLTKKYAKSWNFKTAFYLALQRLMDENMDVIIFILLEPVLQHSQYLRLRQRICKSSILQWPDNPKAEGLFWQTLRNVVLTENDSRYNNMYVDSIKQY
How it was run: as §1

Row | Structure (SMILES) | IC50 (human TLR9) [nM] | IC50 (human TLR7) [nM] | IC50 (human TLR8) [nM]
1 | CC(C)c1c(-c2cnc3[nH]ncc3c2)[nH]c2ccc(C3CCN(C(=O)CN(C)C)CC3)cc12 [Example 562, 2-(dimethylamino)-1-(4-(3-isopropyl-2-(1H-pyrazolo[3,4-b]pyridin-5-yl)-1H-indol-5-yl)piperidin-1-yl)ethan-1-one] | 1000 to 50000 | < 100 | < 100
2 | CC(C)c1c(-c2cnc3ccnn3c2)[nH]c2ccc(C3CCNCC3)cc12 [Example 181, 6-(3-isopropyl-5-(piperidin-4-yl)-1H-indol-2-yl)pyrazolo[1,5-a]pyrimidine] | 1000 to 50000 | 1000 to 50000 | > 3130
3 | CC(C)c1c(-c2ccc(C#N)c3ncccc23)[nH]c2ccc(C3CCN(CC(=O)N(C)C)CC3)cc12 [Example 370, 2-(4-(2-(8-cyanoquinolin-5-yl)-3-isopropyl-1H-indol-5-yl)piperidin-1-yl)-N,N-dimethylacetamide] | 1000 to 50000 | < 100 | < 100
4 | CC(C)c1c(-c2ccc3ncnn3n2)[nH]c2ccc(C3CCNCC3)cc12 [Example 242, 6-(3-isopropyl-5-(piperidin-4-yl)-1H-indol-2-yl)-[1,2,4]triazolo[1,5-b]pyridazine] | 1000 to 50000 | < 100 | < 100
5 | Cc1cc(-c2[nH]c3ccc(C4CCNCC4)cc3c2C(C)C)cn2c(C(N)=O)cnc12 [Example 261, 6-(3-isopropyl-5-(piperidin-4-yl)-1H-indol-2-yl)-8-methylimidazo[1,2-a]pyridine-3-carboxamide] | 1000 to 50000 | < 100 | 100 to 1000

Continued, values first:

Row | IC50 (human TLR9) [nM] | IC50 (human TLR7) [nM] | IC50 (human TLR8) [nM] | Structure (SMILES)
6 | 100 to 1000 | 100 to 1000 | < 100 | CCc1ncc(CN2CCC(c3ccc4[nH]c(-c5ccnc6[nH]ncc56)c(CC)c4c3)CC2)[nH]1 [Example 915, 4-(3-ethyl-5-(1-((2-ethyl-1H-imidazol-5-yl)methyl)piperidin-4-yl)-1H-indol-2-yl)-1H-pyrazolo[3,4-b]pyridine]
7 | 100 to 1000 | < 100 | < 100 | Cc1nnn2ccc(-c3[nH]c4ccc(C5CCN(C6CCOCC6)CC5)cc4c3C(C)C)cc12 [Example 700, 5-(3-isopropyl-5-(1-(tetrahydro-2H-pyran-4-yl)piperidin-4-yl)-1H-indol-2-yl)-3-methyl-[1,2,3]triazolo[1,5-a]pyridine]
8 | 1000 to 50000 | < 100 | 100 to 1000 | Cc1cc(-c2[nH]c3ccc(C4CCN(C(=O)C[C@H](C)O)CC4)cc3c2C(C)C)cc2ncnn12 [Example 600, (S)-3-hydroxy-1-(4-(3-isopropyl-2-(5-methyl-[1,2,4]triazolo[1,5-a]pyridin-7-yl)-1H-indol-5-yl)piperidin-1-yl)butan-1-one]
9 | 100 to 1000 | < 100 | 100 to 1000 | CCCN1CCC(c2ccc3[nH]c(-c4cc(C)c5c(c4)ncn5C)c(C(C)C)c3c2)CC1 [Example 956, 5-(3-isopropyl-5-(1-propylpiperidin-4-yl)-1H-indol-2-yl)-1,7-dimethyl-1H-benzo[d]imidazole]
10 | 1000 to 50000 | < 100 | < 100 | Cc1cc2nnnn2cc1-c1[nH]c2ccc(C3CCN(C4CCOCC4)CC3)cc2c1C(C)C [Example 699, 6-(3-isopropyl-5-(1-(tetrahydro-2H-pyran-4-yl)piperidin-4-yl)-1H-indol-2-yl)-7-methyltetrazolo[1,5-a]pyridine]
11 | 1000 to 50000 | < 100 | < 100 | CC(C)c1c(-c2cc(Cl)c3ncccc3c2)[nH]c2ccc(C3CCN(CC(C)(C)O)CC3)cc12 [Example 767, 1-(4-(2-(8-chloroquinolin-6-yl)-3-isopropyl-1H-indol-5-yl)piperidin-1-yl)-2-methylpropan-2-ol]
12 | 1000 to 50000 | > 3130 | > 3130 | Cc1cc2cc(-c3[nH]c4ccc(C5CCN(C6COC6)CC5)cc4c3C(C)C)cc(CC(C)C)n2n1 [Example 716, 7-isobutyl-5-(3-isopropyl-5-(1-(oxetan-3-yl)piperidin-4-yl)-1H-indol-2-yl)-2-methylpyrazolo[1,5-a]pyridine]
